We go through two compounds from patent US20090179638A1, “ASSAY FOR IDENTIFYING INHIBITORS OF NEURONAL APOPTOTIC PATHWAYS” (AEGERA THERAPEUTICS INC., priority 2006, published 2009).

The assay has as its system JNK. Nature of the assay: Endogenous phosphorylation of GST-c-Jun in PC12rtTA cells. The format is cell-based. Conditions: for expression of the GST-c-Jun fusion construct: PC12rtTA cells. As for the experimental part:
FIGS. 7A, 7B and 7C are photographs of Western blots which illustrate that compound 1 analogues inhibit JNK activation and induce expression of HSP70. A: PC12^rtTA cells were transfected with RNAi directed against HSP70 or with control RNA and then 24 hours later were infected with 5 MOI of AdNRG or 50 MOI of the control virus AdLacZ. At time of infection, the cells were treated with 40 μM compound 2 or with a vehicle control, as indicated. After 30 hours, cells were lysed, normalized for protein levels, and analyzed for phosphorylated Jun, HSP70, HSP25 NRAGE and actin levels. B: PC12^rtTA cells were transfected with an expression construct driving GST-Jun. After 24 hours, cells were infected with 5 MOI of AdNRG or 50 MOI of the control virus AdLacZ or were left uninfected. After a further 24 hours, uninfected cells were left untreated or were exposed to 10 ng/ml TNF or 300 mM sorbitol for 15 minutes. Cells were then lysed, normalized for protein levels, and GST-jun was recovered by glutathione pullout and analyzed for phosphorylation using a antibody directed against c-Jun pSer63 by immunoblotting. Equivalent pullout of GST-Jun was confirmed by immunoblotting with an antibody directed against c-Jun and GST. C: PC12^rtTA cells were co-transfected with an expression construct driving GST-Jun and with RNAi directed against HSP70 or with control RNA, as indicated. After 24 hours, cells were infected with 5 MOI of AdNRG or 50 MOI of the control virus AdLacZ. At time of infection, the cells were treated with 40 μM compound 2 or with a vehicle control, as indicated. After 30 hours, cells were lysed, normalized for protein levels, and GST-jun was recovered by glutathione pullout and analyzed for phosphorylation using an antibody directed against c-Jun pSer63 by immunoblotting. Equivalent pullout of GST-Jun was confirmed by immunoblotting with an antibody directed against total Jun. Lysates levels of HSP70, HSP25, HSP40, NRAGE and actin was determined by immunoblot. […]
A causal link between HSP70 induction and JNK suppression, circumventing the problem of low-transfection efficiency of the PC12rtTA cells, was developed to assess JNK pathway activation specifically in the RNAi transfected subpopulation of PC12rtTA cells. […] We anticipated that the GST-c-Jun fusion protein would be readily recoverable from lysates and its phosphostatus would provide a sensitive read-out that reflects the level of JNK pathway activation in the subpopulation of cells which were transfected. […] GST-c-Jun was then recovered from lysates and its phosphostatus determined by immunoblotting. […] Thus, the phosphostatus of the GST-jun fusion protein provided a sensitive read-out that reflects the level of JNK pathway activation in transfected cells. […]

Consider `NS(=O)(=O)c1nn2cc(-c3ccccc3)nc2s1` [Compound 1], for which the “expression of the GST-c-Jun fusion construct” value is “significantly increased”.
In the case of `NS(=O)(=O)c1nn2cc(-c3ccc(N4CCOCC4)cc3)nc2s1` [Compound 2], the “expression of the GST-c-Jun fusion construct” value is reported as “without altering”. The “ability to block GST-jun phosphorylation” value (40 μM, RNAi directed against HSP70) is reported as “almost completely lost”. Besides, the “AdNRG-induced phosphorylation of GST-c-Jun” value (40 μM, control siRNA) is reported as “strongly inhibited”.
